We go through ten molecules from patent US9598440B2, “Inhibitors of IRAK4 activity” (MERCK SHARP & DOHME CORP., priority 2012, dated 2017).

SMILES strings stand for the structures.

For this assay, the target named is IRAK4 (Homo sapiens (Human), UniProt Q9NWZ3). The experiment in a line: Determination of IRAK4 kinase activity (IMAP fluorescence polarization, phosphorylation of fluorescent peptide substrate). The settings on record: 0.5 nM GST tagged IRAK4, 100 nM peptide substrate RP7030, 100 μM ATP, 30 minutes at 25° C. Type of assay: biochemical. As to the method: The kinase activity of IRAK4 is determined by its ability to catalyze the phosphorylation of a fluorescent polypeptide substrate. The extent of phosphorylation is measured using IMAP technology (Molecular Devices) where the phosphorylated fluorescent substrate binds to the large M(III)-based nanoparticles which reduces the rotational speed of the substrate and thus increases its fluorescent polarization (FP).
Chain of IRAK4 (Q9NWZ3 whole entry): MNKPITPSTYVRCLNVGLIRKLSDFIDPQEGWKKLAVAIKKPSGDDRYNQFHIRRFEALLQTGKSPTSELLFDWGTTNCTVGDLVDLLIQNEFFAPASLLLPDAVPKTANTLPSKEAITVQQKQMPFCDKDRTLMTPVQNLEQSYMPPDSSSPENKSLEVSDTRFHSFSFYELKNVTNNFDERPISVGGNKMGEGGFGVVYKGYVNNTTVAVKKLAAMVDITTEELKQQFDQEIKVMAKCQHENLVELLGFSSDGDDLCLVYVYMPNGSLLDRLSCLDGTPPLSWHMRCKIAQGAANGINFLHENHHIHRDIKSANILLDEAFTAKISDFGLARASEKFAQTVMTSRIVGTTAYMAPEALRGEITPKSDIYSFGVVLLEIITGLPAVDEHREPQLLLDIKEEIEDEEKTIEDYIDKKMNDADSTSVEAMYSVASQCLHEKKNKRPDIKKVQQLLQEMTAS
Procedure: A 20 μl reaction mixture contains 10 mM TriHCl, pH 7.2, 0.5 nM GST tagged IRAK4 (SignalChem), 100 nM fluorescent peptide substrate (RP7030, Molecular Devices), 100 μM ATP, 1 mM DTT, 1 mM MgCl2, and 0.01% Tween 20. The reaction is initiated by the addition of ATP. After incubation for 30 minutes at 25° C., 60 μl of Progressive IMAP Reagent (Molecular Devices) is added to stop the reaction. Change in RP7030's FP is determined by a FP reader (Analyst HT, LJL BioSystems). Analytical LCMS Conditions: • Condition A: Phenomenex Luna C18 (4.6×250 mm), 95:5 to 5:95 water:MeCN (0.05% TFA), over 10 min, hold 6 min. • Condition B: Agilent SBC (3.0×50 mm), solvent A: H20-0.1% TFA; • solvent B: ACN-0.1% TFA; GRADIENT TABLE: 0 min:10% B, 0.3 min: 10% B, 1.5 min: 95% B, 2.70 min: 95% B, 2.76 min: 10% B, stop time 3.60 min.
(Polarisation of emitted light reports the rotation of a fluorescent probe.)
`CN1CCCC(Nc2ncc(-c3nc4ccccc4s3)c(N[C@@H]3C[C@H](CO)[C@@H](O)[C@H]3O)n2)C1` (mixture of isomers) [Example 32, (1R,2S,3R,5R)-3-((5-(benzo[d]thiazol-2-yl)-2-(((RS)-1-methylpiperidin-3-yl)amino)pyrimidin-4-yl)amino)-5-(hydroxymethyl)cyclopentane-1,2-diol]: the IC50 (commonly the concentration needed to halve the response being measured) was found to be 934 nM.
With `OC[C@H]1C[C@@H](Nc2nc(NC3CCCNC3)ncc2-c2nc3ccccc3s2)[C@H](O)[C@@H]1O` (mixture of isomers) [Example 47, (1R,2S,3R,5R)-3-((5-(benzo[d]thiazol-2-yl)-2-((RS)-piperidin-3-ylamino)pyrimidin-4-yl)amino)-5-(hydroxymethyl)cyclopentane-1,2-diol], the IC50 came out at 3270 nM.
Regarding `OC[C@H]1C[C@@H](Nc2nc(NC3CCOC3)ncc2-c2nc3ccccc3s2)[C@H](O)[C@@H]1O` (mixture of isomers) [Example 48, (1R,2S,3R,5R)-3-((5-(benzo[d]thiazol-2-yl)-2-(((RS)-tetrahydrofuran-3-yl)amino)pyrimidin-4-yl)amino)-5-(hydroxymethyl)cyclopentane-1,2-diol], the IC50 turned out to be 1580 nM.
As to `OC[C@H]1C[C@@H](Nc2nc(NC3CCCOC3)ncc2-c2nc3ccccc3s2)[C@H](O)[C@@H]1O` (mixture of isomers) [Example 49, (1R,2S,3R,5R)-3-((5-(benzo[d]thiazol-2-yl)-2-(((RS)-tetrahydro-2H-pyran-3-yl)amino)pyrimidin-4-yl)amino)-5-(hydroxymethyl)cyclopentane-1,2-diol], the IC50 stood at 1470 nM.
`OC[C@H]1C[C@@H](Nc2nc(NC3CCNC3)ncc2-c2nc3ccccc3s2)[C@H](O)[C@@H]1O` (mixture of isomers) [Example 51, (1R,2S,3R,5R)-3-((5-(benzo[d]thiazol-2-yl)-2-((RS)-pyrrolidin-3-ylamino)pyrimidin-4-yl)amino)-5-(hydroxymethyl)cyclopentane-1,2-diol] returned an IC50 of 1380 nM.
For `Cc1cc(Nc2ncc(-c3ccc4ccccc4n3)c(N[C@@H]3CC(C(C)(C)O)[C@@H](O)[C@H]3O)n2)cc(C)n1` (stereo in doubt) [Example 111, 6-(((1R,2S,3R,4R)-2,3-dihydroxy-4-(2-hydroxypropan-2-yl)cyclopentyl)amino)-2-((2,6-dimethylpyridin-4-yl)amino)-5-(quinolin-2-yl)pyrimidine], the IC50 came out at 0.2 nM.
The molecule `COc1cc(Nc2ncc(-c3ccc4ccccc4n3)c(N[C@@H]3CC(C(C)(C)O)[C@@H](O)[C@H]3O)n2)ccn1` (stereo in doubt) [Example 112, 6-(((1R,2S,3R,4R)-2,3-dihydroxy-4-(2-hydroxypropan-2-yl)cyclopentyl)amino)-2-((2-methoxypyridin-4-yl)amino)-5-(quinolin-2-yl)pyrimidine] returned an IC50 of 4 nM.
The figure for `CC(C)(O)C1C[C@@H](Nc2nc(Nc3cccc(C#N)c3)ncc2-c2nc3ccccc3s2)[C@H](O)[C@@H]1O` (stereo in doubt) [Example 115, 5-(benzo[d]thiazol-2-yl)-2-((3-cyanophenyl)amino)-6-(((1R,2S,3R,4R)-2,3-dihydroxy-4-(2-hydroxypropan-2-yl)cyclopentyl)amino)pyrimidine] is 36 nM; for `CC(C)Oc1cc(Nc2ncc(-c3nc4ccccc4s3)c(N[C@@H]3CC(C(C)(C)O)[C@@H](O)[C@H]3O)n2)ccn1` (stereo in doubt) [Example 116, 5-(benzo[d]thiazol-2-yl)-6-(((1R,2S,3R,4R)-2,3-dihydroxy-4-(2-hydroxypropan-2-yl)cyclopentyl)amino)-2-((2-isopropoxypyridin-4-yl)amino)pyrimidine] it is 19 nM.
`COc1cccc(Nc2ncc(-c3nc4ccccc4s3)c(N[C@@H]3CC(C(C)(C)O)[C@@H](O)[C@H]3O)n2)c1` (stereo in doubt) [Example 117, 5-(benzo[d]thiazol-2-yl)-6-(((1R,2S,3R,4R)-2,3-dihydroxy-4-(2-hydroxypropan-2-yl)cyclopentyl)amino)-2-((3-methoxyphenyl)amino)pyrimidine] gave a 50% inhibitory concentration (IC50) of 20 nM.
